Laboratory results reported in paper PMC3876893 (Journal of the American Chemical Society, 2013).

Target: CalE8 (Micromonospora echinospora, UniProt Q8KNG1)
Test: in vitro reconstitution, HPLC/LCMS of base-released polyketides
Assay type: biochemical
Details: NADPH co-substrate (0.5 mM each), pH 7.0, 24 °C, no CalE7 thioesterase

CalE8, sequence (Q8KNG1 1-1919): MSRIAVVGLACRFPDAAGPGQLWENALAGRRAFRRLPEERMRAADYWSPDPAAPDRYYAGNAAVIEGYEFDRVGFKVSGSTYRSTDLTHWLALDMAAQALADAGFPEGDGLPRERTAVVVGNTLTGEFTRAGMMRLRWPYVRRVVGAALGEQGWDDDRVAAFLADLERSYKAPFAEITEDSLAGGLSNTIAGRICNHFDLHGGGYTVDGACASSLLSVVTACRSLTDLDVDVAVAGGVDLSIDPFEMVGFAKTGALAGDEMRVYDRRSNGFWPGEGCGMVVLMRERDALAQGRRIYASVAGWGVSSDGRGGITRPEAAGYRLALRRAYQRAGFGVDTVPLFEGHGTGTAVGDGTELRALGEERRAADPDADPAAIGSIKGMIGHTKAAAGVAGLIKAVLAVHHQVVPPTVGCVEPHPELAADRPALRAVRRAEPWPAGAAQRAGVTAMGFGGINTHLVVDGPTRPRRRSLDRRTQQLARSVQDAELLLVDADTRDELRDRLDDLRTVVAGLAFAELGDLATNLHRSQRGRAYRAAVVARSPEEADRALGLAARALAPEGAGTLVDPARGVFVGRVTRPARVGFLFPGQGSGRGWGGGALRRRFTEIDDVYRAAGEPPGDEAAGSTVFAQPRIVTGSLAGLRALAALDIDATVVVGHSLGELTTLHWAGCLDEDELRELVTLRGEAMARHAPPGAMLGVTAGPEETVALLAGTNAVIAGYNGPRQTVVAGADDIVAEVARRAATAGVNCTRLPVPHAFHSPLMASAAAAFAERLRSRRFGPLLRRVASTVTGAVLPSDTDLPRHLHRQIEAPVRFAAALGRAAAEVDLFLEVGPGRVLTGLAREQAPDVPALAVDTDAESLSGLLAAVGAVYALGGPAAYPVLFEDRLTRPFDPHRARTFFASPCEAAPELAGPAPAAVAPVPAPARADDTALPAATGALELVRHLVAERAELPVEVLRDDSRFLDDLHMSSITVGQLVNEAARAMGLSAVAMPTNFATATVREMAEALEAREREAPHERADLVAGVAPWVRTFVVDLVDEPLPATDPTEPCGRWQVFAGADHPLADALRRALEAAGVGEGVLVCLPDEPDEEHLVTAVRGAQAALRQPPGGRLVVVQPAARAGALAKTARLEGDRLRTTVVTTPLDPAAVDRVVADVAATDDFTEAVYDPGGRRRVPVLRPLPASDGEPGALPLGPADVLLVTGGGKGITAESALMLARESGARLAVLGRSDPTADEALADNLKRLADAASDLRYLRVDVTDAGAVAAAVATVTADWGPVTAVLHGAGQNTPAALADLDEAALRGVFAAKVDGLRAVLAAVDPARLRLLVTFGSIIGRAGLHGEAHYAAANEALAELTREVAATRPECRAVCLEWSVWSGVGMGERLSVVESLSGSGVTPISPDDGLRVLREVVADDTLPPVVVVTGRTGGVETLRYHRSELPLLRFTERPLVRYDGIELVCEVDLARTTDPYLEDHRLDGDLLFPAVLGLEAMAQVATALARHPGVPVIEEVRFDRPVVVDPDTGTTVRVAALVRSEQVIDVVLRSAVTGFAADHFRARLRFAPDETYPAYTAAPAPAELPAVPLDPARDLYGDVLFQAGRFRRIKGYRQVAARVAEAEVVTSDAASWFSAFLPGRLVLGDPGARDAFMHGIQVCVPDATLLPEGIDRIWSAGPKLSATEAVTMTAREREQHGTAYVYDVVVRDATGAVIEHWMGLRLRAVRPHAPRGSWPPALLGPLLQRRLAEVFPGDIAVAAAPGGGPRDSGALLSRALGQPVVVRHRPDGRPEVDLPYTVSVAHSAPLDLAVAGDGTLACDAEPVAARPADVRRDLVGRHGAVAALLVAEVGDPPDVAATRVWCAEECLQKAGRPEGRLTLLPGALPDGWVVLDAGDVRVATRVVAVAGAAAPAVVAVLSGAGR

CC(=O)NCCSC(=O)CC(=O)O [malonyl-SNAc]
in vitro reconstitution, HPLC/LCMS of base-released polyketides: polyketide profiles of CalE8 are consistent when MalCoA is replaced by malonyl-SNAc (MalSNAc)
